The values below come from patent publication US9828339B2, “Biphenyl derivatives and methods for preparing same” (DONG-A ST CO., LTD, priority 2013, dated 2017).

A word on the Ki: it is the equilibrium dissociation constant of an inhibitor or competing ligand from its target.

The target of assay [1] is T1, human muscarinic M3 receptor (Homo sapiens (Human), UniProt P20309). In words: Binding assay on human muscarinic M3 receptor ([3H]-methyl scopolamine displacement). To be noted: membranes overexpressing human M3 receptor, Ki from IC50 by Cheng-Prusoff, read-out: Binding Affinity to M3 Receptor, Ki. The procedure, abridged: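 Displacement of [3H]-methyl scopolamine from membranes overexpressing human M3, in Tris-HCl, 25 °C, 120 min; filter-bound radioactivity counted. Nonspecific binding with 5 μM atropine; Ki from IC50 via Cheng-Prusoff.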

Assay [2] has as its system rhythmic bladder contractions. In words: Rhythmic bladder contractions in rats (in vivo). Further details: species or system rat. Conditions: 0.3 mpk, intravenous, female Sprague-Dawley rats; amplitude reduction of bladder contractions. The text has this:
[Experimental Example 3] Experiment on Rhythmic Bladder Contractions in Rats (In Vivo)
Female Sprague-Dawley rat was halothane-anesthetized, and a polyethylene catheter was inserted through urethra lay down straight and fixed. Urine in bladder was excreted through the catheter by gently massaging abdomen of the rat, and then removed. A three-way stopcock was connected to the catheter and a pressure transducer was connected to one side of the three-way stopcock to measure pressure, and a syringe was installed at the other side to inject 37° C. of saline solution. The saline solution was slowly injected until regular bladder contractions occurred repeatedly. When regular bladder contractions occurred stably, test compounds were administered intravenously through the tail vein. Inhibitory effect of the test compounds was evaluated by measuring degree of amplitude reduction of bladder contractions.

Assay [3] deals with T1, human muscarinic M3 receptor. Briefly: Antagonism assay on human muscarinic M3 receptor (carbachol-induced intracellular calcium, FLIPR Calcium 5, transfected Cos-7 cells). To be noted: functional inhibitory constant; carbachol-induced intracellular calcium in Cos-7 cells transfected with human M3 receptor. The assay is classed as cell-based. The procedure: [Experimental Example 2] Antagonism Assay on Human Muscarinic M3 Receptor
The antagonism assay for various compounds of the present invention was conducted on antagonism to human M3 receptor in Cos-7 cells that was transfected with plasmid coding human muscarinic M3 receptor. Test compounds in various concentrations were pre-treated to the cells for 3 minutes, and then the changes of intracellular calcium were measured after treating the same with carbachol (i.e. muscarinic receptor agonist). The FLIPR® Calcium 5 assay (Molecular Devices) and Flex3 device (Molecular Devices) were used to measure concentration of calcium. Amounts of calcium before and after carbachol treatment were set as 0% and 100% respectively. Inhibition rates (%) by the compounds for increase in intracellular calcium by carbachol were calculated. The antagonistic potency of the test compounds on human muscarinic M3 receptor was calculated as the functional inhibitory constant (Ki), which can be calculated from concentration (IC50) of compound inhibiting 50% of activity of carbachol according to Cheng and Prusoff equation.

T1 sequence (P20309 whole entry): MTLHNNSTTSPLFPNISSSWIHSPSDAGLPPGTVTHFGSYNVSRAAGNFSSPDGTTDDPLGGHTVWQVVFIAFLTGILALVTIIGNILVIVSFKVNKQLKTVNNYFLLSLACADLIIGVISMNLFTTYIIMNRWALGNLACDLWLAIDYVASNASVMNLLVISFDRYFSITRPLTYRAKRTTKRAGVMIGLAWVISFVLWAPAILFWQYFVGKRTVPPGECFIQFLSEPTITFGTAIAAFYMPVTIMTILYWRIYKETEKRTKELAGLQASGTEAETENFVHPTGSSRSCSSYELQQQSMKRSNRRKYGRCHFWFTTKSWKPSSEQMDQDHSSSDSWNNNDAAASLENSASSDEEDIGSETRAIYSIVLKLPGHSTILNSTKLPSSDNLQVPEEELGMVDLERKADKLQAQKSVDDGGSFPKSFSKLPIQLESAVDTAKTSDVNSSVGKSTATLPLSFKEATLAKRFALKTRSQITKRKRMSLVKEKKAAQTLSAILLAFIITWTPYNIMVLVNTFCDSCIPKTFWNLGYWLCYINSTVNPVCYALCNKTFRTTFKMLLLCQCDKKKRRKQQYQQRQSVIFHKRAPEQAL

As to `CN1CCCC1COC(=O)Nc1ccccc1-c1ccc(F)cc1` (stereo in doubt) [Example 99, (S)-(1-methylpyrrolidin-2-yl)methyl (4′-fluoro-[1,1′-biphenyl]-2-yl)carbamate], the inhibition constant Ki in assay [1] was 8.1 nM. Also, the “Inhibition of Rhythmic bladder contraction in rats” value (shortened to “Inhibition”) in assay [2] is listed as 16.3 ± 1.0%.

Turning to `CN1CCCC1CCOC(=O)Nc1ccccc1-c1ccc(F)cc1` (stereo not shown) [Example 1, 2-(1-methylpyrrolidin-2-yl)ethyl(4′-fluoro-[1,1′-biphenyl]-2-yl)carbamate], the Ki in assay [1] amounted to 4.42 nM. Besides, the “Inhibition” value in assay [2] was determined as 26.1 ± 5.1%.

Turning to `CN1CCCC1CCOC(=O)Nc1ccccc1-c1cc(F)c(F)c(F)c1` (stereo not shown) [Example 3, 2-(1-methylpyrrolidin-2-yl)ethyl(3′,4′,5′-trifluoro-[1,1′-biphenyl]-2-yl)carbamate], the Ki in assay [1] was 11.6 nM. Also, the “Inhibition” value in assay [2] is on record as 15.9 ± 0.9%.

Take `CN1CCCC1CCOC(=O)Nc1ccccc1-c1ccccc1` (stereo not shown) [Example 6, 2-(1-methylpyrrolidin-2-yl)ethyl[1,1′-biphenyl]-2-ylcarbamate]: the Ki in assay [1] came out at 2.47 nM. For the same compound, in assay [2], the “Inhibition” value is given as 28.5 ± 4.6%.

`CN1CCCC1CCOC(=O)Nc1ccccc1-c1cc(Cl)cc(Cl)c1` (stereo not shown) [Example 9, 2-(1-methylpyrrolidin-2-yl)ethyl(3′,5′-dichloro-[1,1′-biphenyl]-2-yl)carbamate]: in assay [1], the inhibitory constant (Ki) was 9.1 nM. In addition, the “Inhibition” value in assay [2] is listed as 9.6 ± 1.6%.

Turning to `CN1CCCC1CCOC(=O)Nc1ccc(F)cc1-c1cccc(Cl)c1` (stereo not shown) [Example 17, 2-(1-methylpyrrolidin-2-yl)ethyl(3′-chloro-5-fluoro-[1,1′-biphenyl]-2-yl)carbamate], the Ki in assay [1] was 1 nM. The “Inhibition” value in assay [2] was determined as 27.9 ± 6.1%.

Consider `Cc1ccc(NC(=O)OCCC2CCCN2C)c(-c2ccccc2)c1` (stereo not shown) [Example 26, 2-(1-methylpyrrolidin-2-yl)ethyl(5-methyl-[1,1′-biphenyl]-2-yl)carbamate], for which the inhibition constant Ki in assay [1] came to 18.5 nM. Also, in assay [2], the “Inhibition” value turned out to be 11.0 ± 2.5%.

With `CN1CCCC1CCOC(=O)Nc1ccc(F)cc1-c1ccc(Cl)c(Cl)c1` (stereo not shown) [Example 43, 2-(1-methylpyrrolidin-2-yl)ethyl(3′,4′-dichloro-5-fluoro-[1,1′-biphenyl]-2-yl)carbamate], in assay [1], the Ki was determined as 1.48 nM. Also, the “Inhibition” value in assay [2] is 8.9 ± 2.3%.

On to `O=C(Nc1ccccc1-c1ccccc1)OC[C@@H]1CCNC1` [Example 78, (R)-pyrrolidin-3-ylmethyl [1,1′-biphenyl]-2-ylcarbamate], for which the Ki in assay [1] is 4.62 nM. Moreover, the “Inhibition” value in assay [2] turned out to be 17.9 ± 2.1%.

For the compound `CN1CC[C@H](COC(=O)Nc2ccc(F)cc2-c2ccccc2)C1` [Example 93, (S)-(1-methylpyrrolidin-3-yl)methyl (5-fluoro-[1,1′-biphenyl]-2-yl)carbamate], the Ki in assay [1] was 4.12 nM. The “Inhibition” value in assay [2] is 27.3 ± 1.9%.

`Cc1cccc(-c2ccccc2NC(=O)OC[C@H]2CCN(C)C2)c1` [Example 101, (S)-(1-methylpyrrolidin-3-yl)-methyl(3′-methyl-[1,1′-biphenyl]-2-yl)carbamate]: the inhibitory constant (Ki) in assay [1] was determined as 3.79 nM. For the same compound, the “Inhibition” value in assay [2] amounted to 20.1 ± 1.7%.

`CCN1CCC[C@H]1COC(=O)Nc1ccccc1-c1ccccc1` [Example 106, (S)-(1-ethylpyrrolidin-2-yl)methyl [1,1′-biphenyl]-2-ylcarbamate]: the Ki in assay [1] was determined as 0.8 nM. The “Inhibition” value in assay [2] came to 32.7 ± 5.2%.

For `CN1CC[C@H](COC(=O)Nc2ccc(F)cc2-c2cccc(F)c2)C1` [Example 108, (S)-(1-methylpyrrolidin-3-yl)-methyl(3′,5-difluoro-[1,1′-biphenyl]-2-yl)carbamate], in assay [1], the Ki was 3.95 nM. Further, in assay [2], the “Inhibition” value was determined as 18.1 ± 1.4%.

As for `CN1CCC[C@@H]1COC(=O)Nc1ccccc1-c1ccccc1` [Example 109, (R)-(1-methylpyrrolidin-2-yl)-methyl [1,1′-biphenyl]-2-ylcarbamate], in assay [1], the Ki was found to be 5.33 nM. Moreover, the “Inhibition” value in assay [2] is on record as 18.1 ± 1.7%.

Turning to `CC(C)N1CCC[C@H]1COC(=O)Nc1ccccc1-c1ccccc1` [Example 112, (S)-(1-isopropylpyrrolidin-2-yl)-methyl [1,1′-biphenyl]-2-ylcarbamate], the Ki in assay [1] turned out to be 3.77 nM. Further, in assay [2], the “Inhibition” value is 34.8 ± 2.9%.

Regarding `CN1CC[C@H](COC(=O)Nc2ccccc2-c2ccc(F)c(Cl)c2)C1` [Example 121, (S)-(1-methylpyrrolidin-3-yl)methyl(3′-chloro-4′-fluoro-[1,1′-biphenyl]-2-yl)carbamate], in assay [1], the inhibition constant (Ki) stood at 1.75 nM. In assay [2], the “Inhibition” value was determined as 31.4 ± 6.1%.

Consider `CC(C)N1CC[C@@H](COC(=O)Nc2ccccc2-c2ccc(F)c(Cl)c2)C1` [Example 151, (R)-(1-isopropylpyrrolidin-3-yl)-methyl (3′-chloro-4′-fluoro-[1,1′-biphenyl]-2-yl)carbamate], for which the Ki in assay [1] is 14.9 nM; in assay [3], 2.67 nM.

As for `CN1CC[C@@H](COC(=O)Nc2ccccc2-c2ccccc2F)C1` [Example 156, (R)-(1-methylpyrrolidin-3-yl)methyl(2′-fluoro-[1,1′-biphenyl]-2-yl)carbamate], the Ki in assay [1] turned out to be 10.6 nM; in assay [3], 1.15 nM.

In the case of `CN1CC[C@@H](COC(=O)Nc2ccccc2-c2ccc(F)cc2F)C1` [Example 157, (R)-(1-methylpyrrolidin-3-yl)methyl-(2′,4′-difluoro-[1,1′-biphenyl]-2-yl)carbamate], the values for the Ki in assay [1] and in assay [3] were 29.6 nM and 3.25 nM, respectively.

Consider `CN1CC[C@@H](COC(=O)Nc2ccccc2-c2cc(Cl)ccc2F)C1` [Example 159, (R)-(1-methylpyrrolidin-3-yl)methyl(3′-chloro-6′-fluoro-[1,1′-biphenyl]-2-yl)carbamate], for which the inhibition constant Ki worked out at 5.13 nM in assay [1] and 0.46 nM in assay [3].

`CN1CCCC1CCOC(=O)Nc1ccccc1-c1ccc(F)cc1F` (stereo not shown) [Example 183, 2-(1-Methylpyrrolidin-2-yl)ethyl (2′,4′-difluoro-[1,1′-biphenyl]-2-yl)carbamate]: the inhibition constant Ki came out at 18.9 nM in assay [1] and 2.57 nM in assay [3].

As to `CN1CCCC1CCOC(=O)Nc1ccccc1-c1cc(Cl)ccc1F` (stereo not shown) [Example 186, 2-(1-Methylpyrrolidin-2-yl)ethyl (5′-chloro-2′-fluoro-[1,1′-biphenyl]-2-yl)carbamate], the Ki stood at 4.68 nM in assay [1] and 0.34 nM in assay [3].

Take `CN1CCC[C@H]1COC(=O)Nc1ccccc1-c1ccccc1F` [Example 187, (S)-(1-methylpyrrolidin-2-yl)methyl(2′-fluoro-[1,1′-biphenyl]-2-yl)carbamate]: the values for the Ki in assay [1] and in assay [3] were 10.7 nM and 0.48 nM, respectively.

On to `CN1CCC[C@H]1COC(=O)Nc1ccccc1-c1ccc(F)cc1F` [Example 188, (S)-(1-methylpyrrolidin-2-yl)methyl(2′,4′-difluoro-[1,1′-biphenyl]-2-yl)carbamate], for which the Ki in assay [1] came to 13.7 nM; in assay [3], 2.23 nM.

In the case of `CN1CCC[C@H]1COC(=O)Nc1ccccc1-c1cc(Cl)ccc1F` [Example 190, (S)-(1-methylpyrrolidin-2-yl)methyl(3′-chloro-6′-fluoro-[1,1′-biphenyl]-2-yl)carbamate], the Ki in assay [1] came out at 2.17 nM; in assay [3] it was 0.95 nM.

Consider `CCN1CC[C@@H](COC(=O)Nc2ccc(F)cc2-c2ccc(F)c(Cl)c2)C1` [Example 196, (R)-(1-ethylpyrrolidin-3-yl)methyl (3′-chloro-4′,5-difluoro-[1,1′-biphenyl]-2-yl)carbamate], for which the inhibition constant Ki in assay [1] was determined as 7.67 nM; in assay [3] it was 1.54 nM.

Consider `CN1CCC[C@H]1COC(=O)Nc1ccc(F)cc1-c1ccc(F)c(Cl)c1` [Example 211, (S)-(1-methylpyrrolidin-2-yl)methyl(3′-chloro-4′,5-difluoro-[1,1′-biphenyl]-2-yl)carbamate], for which the Ki in assay [1] turned out to be 9.91 nM; in assay [3], 10 nM.

As to `COc1ccc(NC(=O)OC[C@@H]2CCCN2C)c(-c2cccc(Cl)c2)c1` [Example 224, (S)-(1-methylpyrrolidin-2-yl)methyl(3′-chloro-5-methoxy-[1,1′-biphenyl]-2-yl)carbamate], the inhibition constant Ki in assay [1] stood at 15.1 nM; in assay [3], 7.5 nM.

As to `COc1ccc(NC(=O)OC[C@@H]2CCCN2C)c(-c2cc(Cl)cc(Cl)c2)c1` [Example 226, (S)-(1-methylpyrrolidin-2-yl)methyl (3′,5′-dichloro-5-methoxy-[1,1′-biphenyl]-2-yl)carbamate], the Ki in assay [1] came to 16.7 nM; in assay [3] it was 4.99 nM.
